One assay addresses cyclophilin B (CypB) (Homo sapiens (Human), UniProt P23284). Description: Inhibitor binding to cyclophilin proteins by SPR, CypB. The conditions noted are these: 1:1 binding model. The arrangement: unit not given here. Put shortly: (§1)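 Mono-biotinylated avi-tagged cyclophilins captured on a Biotin CAPture chip. Single-cycle kinetics at 50 μL/min, 1 min contacts, 10 min final dissociation, in 10 mM HEPES pH 7.4, 150 mM NaCl, 0.05% P20, 3% DMSO. kon, koff and KD from a 1:1 binding model.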
On the technique in general: SPR reads the build-up and loss of mass on a sensor chip optically.

The next assay has as its target cyclophilin A (CypA) (Homo sapiens (Human), UniProt P62937). Description: Inhibitor binding to cyclophilin proteins by SPR, CypA.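 Note: Single-cycle kinetics on a Biacore T200, compound injected at several concentrations for 1 min each at 50 µL/min, then 10 min dissociation, in HEPES pH 7.4 buffer with 3% DMSO.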 The arrangement: unit not given here. The following applies: 1:1 binding model.
The subject of assay [1] is genotype 1b subgenomic HCV replicon in Huh7.5 cells. It is filed as cell-based, hepatitis C virus. The conditions noted are these: read-out: RPLN-1b IC50. A digest of the protocol: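 Replicon inhibition read as renilla luciferase signal versus DMSO controls after 72 h incubation, in Huh7.5 cells harbouring a genotype 1b subgenomic replicon; medium phenol red-free DMEM lacking G418. CC50 determined in parallel via Cell Titer-Glo.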

For assay [2], the target named is organic anion transporting polypeptide 1B1 (OATP1B1) (Homo sapiens (Human), UniProt Q9Y6L6). Description: OATP assay in CHO-OATP1B1 cells.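 Note: inhibition of probe substrate uptake into the cells, ten minutes exposure, accumulated substrate read by fluorescence once cells were lysed.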
Sequence of organic anion transporting polypeptide 1B1 (OATP1B1) (Q9Y6L6 whole entry): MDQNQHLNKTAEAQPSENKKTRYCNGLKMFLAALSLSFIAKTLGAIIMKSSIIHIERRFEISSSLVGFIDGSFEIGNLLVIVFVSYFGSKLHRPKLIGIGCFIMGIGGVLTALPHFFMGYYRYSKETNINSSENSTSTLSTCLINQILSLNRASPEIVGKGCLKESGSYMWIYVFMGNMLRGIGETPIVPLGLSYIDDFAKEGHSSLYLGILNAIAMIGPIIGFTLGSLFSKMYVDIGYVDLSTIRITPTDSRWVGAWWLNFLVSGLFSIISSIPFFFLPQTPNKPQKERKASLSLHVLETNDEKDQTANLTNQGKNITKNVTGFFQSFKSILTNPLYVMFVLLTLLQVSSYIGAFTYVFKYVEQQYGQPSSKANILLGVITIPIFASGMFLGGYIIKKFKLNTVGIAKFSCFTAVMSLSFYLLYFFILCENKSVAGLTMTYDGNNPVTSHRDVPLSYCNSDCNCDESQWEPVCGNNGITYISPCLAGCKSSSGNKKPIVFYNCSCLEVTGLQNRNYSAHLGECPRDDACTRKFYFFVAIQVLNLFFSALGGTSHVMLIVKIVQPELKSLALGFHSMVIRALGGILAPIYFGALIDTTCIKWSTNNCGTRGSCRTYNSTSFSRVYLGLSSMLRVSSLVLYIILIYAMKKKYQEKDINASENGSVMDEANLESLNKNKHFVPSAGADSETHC
The test system of assay [3] is peripheral blood mononuclear cells (PBMC). Description: Anti-proliferative or immunosuppressive activity, BrdU incorporation in PHA-stimulated PBMC. It is filed as cell-based. The following applies: PHA 3 μg/ml, 60 hour compound treatment; read-out: EMV PBMC IC50. A digest of the protocol: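 BrdU ELISA read-out of DNA synthesis in freshly isolated PBMCs (two donors, 30,000 cells/well, X-VIVO 15). T-cell proliferation triggered with phytohemagglutinin at 3 μg/ml.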

For another assay, the target named is CypF (Homo sapiens (Human), UniProt P30405). Nature of the assay: Inhibitor binding to cyclophilin proteins by SPR, CypF. The following applies: 1:1 binding model. Put shortly: as §1
Sequence of CypF (P30405 30-207): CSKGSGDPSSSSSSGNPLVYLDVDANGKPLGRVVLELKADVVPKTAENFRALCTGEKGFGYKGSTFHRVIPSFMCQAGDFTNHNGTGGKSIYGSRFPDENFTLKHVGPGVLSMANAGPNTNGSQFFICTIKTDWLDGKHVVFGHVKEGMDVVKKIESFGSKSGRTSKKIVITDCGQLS
Setting [4] is: genotype 1b replicon, 72 h incubation.

Where two headings read alike, the source gives them in different places. Starred links: 1 amine or outer side, 2 acyl side, 3 side chain; linkers in the order of their positions; H or OH if unused. Non-standard residues stand in square brackets, D forms with d. Residues, ends and D or L forms follow the SMILES beside them. X74 = C[C@H](CCN1CCN2C(=O)OC[C@@H]2C1)[C@@H](C(=O)[*:2])N(C)[*:1]; X31 = C[C@H](CN1C[C@H](C)OC[C@@H]1C)[C@@H](C(=O)[*:2])N(C)[*:1]; X45 = C[C@H](CCC(=O)N1CC2CCC(C1)O2)[C@@H](C(=O)[*:2])N(C)[*:1]; X54 = CCOC(=O)N1CCN(C[C@@H](C)[C@@H](C(=O)[*:2])N(C)[*:1])CC1; X72 = C[C@H](CCN1CCN(C2CCC2)CC1)[C@@H](C(=O)[*:2])N(C)[*:1]; X35 = C[C@H](CN1CCC2(CC1)OCCO2)[C@@H](C(=O)[*:2])N(C)[*:1]; X71 = COC1CN(CC[C@@H](C)[C@@H](C(=O)[*:2])N(C)[*:1])C1; X76 = CO[C@H](CN1CCOCC1)[C@@H](C(=O)[*:2])N(C)[*:1]; MeBmt = C/C=C/C[C@@H](C)[C@@H](O)[C@H](NC)C(=O)O; NMeL = CN[C@@H](CC(C)C)C(=O)O; NMeV = CN[C@H](C(=O)O)C(C)C; dNMeA = CN[C@H](C)C(=O)O; Abu = CC[C@H](N)C(=O)O

Sequence of cyclophilin A (CypA) (P62937 whole entry): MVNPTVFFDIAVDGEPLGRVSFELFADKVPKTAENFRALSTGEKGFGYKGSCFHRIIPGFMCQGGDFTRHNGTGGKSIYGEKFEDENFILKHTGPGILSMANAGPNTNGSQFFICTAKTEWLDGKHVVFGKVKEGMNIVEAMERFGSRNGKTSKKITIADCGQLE
Sequence of cyclophilin B (CypB) (P23284 34-216): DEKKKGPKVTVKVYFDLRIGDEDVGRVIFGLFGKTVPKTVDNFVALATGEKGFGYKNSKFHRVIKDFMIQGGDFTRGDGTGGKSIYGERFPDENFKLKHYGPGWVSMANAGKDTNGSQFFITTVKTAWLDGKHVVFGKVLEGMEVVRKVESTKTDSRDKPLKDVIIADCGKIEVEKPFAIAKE

One may read the IC50 as the concentration at which inhibition is half-maximal. For the compound `C/C=C/C[C@@H](C)[C@@H](O)[C@H]1C(=O)N[C@@H](CC)C(=O)N(C)[C@H](C)C(=O)N(C)[C@@H]([C@H](C)CN2CCN(C(=O)OCC)CC2)C(=O)N[C@@H](C(C)C)C(=O)N(C)[C@@H](CC(C)C)C(=O)N[C@@H](C)C(=O)N[C@H](C)C(=O)N(C)[C@@H](CC(C)C)C(=O)N(C)[C@@H](CC(C)C)C(=O)N(C)[C@@H](C(C)C)C(=O)N1C` [Compound 2.5.31, 3-[D-Ala]-4-[(2S,3R)-4-(4-(ethoxycarbonyl)piperazin-1-yl)-3-methyl-2-(methylamino)butanoyl]-cyclosporin] (cyclo(A[dA][NMeL][NMeL][NMeV][MeBmt][Abu][dNMeA][X54]V[NMeL])), on cyclophilin B (CypB), the “CypB Kd” value turned out to be 1.1. The “CypA Kd” value on cyclophilin A (CypA) is 2.5. Besides, the half-inhibitory concentration (IC50) in assay [1] (setting [4]) is 0.055 µM; in assay [2], 2.1 µM; in assay [3], 18.9 µM. In addition, the CypF Kd at CypF is 0.0013 µM.
On to `C/C=C/C[C@@H](C)[C@@H](O)[C@H]1C(=O)N[C@@H](CC)C(=O)N(C)[C@H](C)C(=O)N(C)[C@@H]([C@H](C)CCN2CC(OC)C2)C(=O)N[C@@H](C(C)C)C(=O)N(C)[C@@H](CC(C)C)C(=O)N[C@@H](C)C(=O)N[C@H](C)C(=O)N(C)[C@@H](CC(C)C)C(=O)N(C)[C@@H](CC(C)C)C(=O)N(C)[C@@H](C(C)C)C(=O)N1C` [Compound 2.18.5, 3-[D-Ala]-4-[(2S,3R)-5-(3-methoxyazetidin-1-yl)-3-methyl-2-(methylamino)pentanoyl]-cyclosporin] (cyclo(A[dA][NMeL][NMeL][NMeV][MeBmt][Abu][dNMeA][X71]V[NMeL])), for which the “CypB Kd” value on cyclophilin B (CypB) stood at 0.6. The “CypA Kd” value at cyclophilin A (CypA) is given as 0.9. For the same compound, the IC50 is 0.078 µM in assay [1] (setting [4]), 1.4 µM in assay [2] and 8.1 µM in assay [3]. The compound also yielded a CypF Kd on CypF of 0.0005 µM.
As to `C/C=C/C[C@@H](C)[C@@H](O)[C@H]1C(=O)N[C@@H](CC)C(=O)N(C)[C@H](C)C(=O)N(C)[C@@H]([C@H](C)CCC(=O)N2CC3CCC(C2)O3)C(=O)N[C@@H](C(C)C)C(=O)N(C)[C@@H](CC(C)C)C(=O)N[C@@H](C)C(=O)N[C@H](C)C(=O)N(C)[C@@H](CC(C)C)C(=O)N(C)[C@@H](CC(C)C)C(=O)N(C)[C@@H](C(C)C)C(=O)N1C` [Compound 2.14.2, 3-[D-Ala]-4-[(2S,3R)-6-(8-oxa-3-azabicyclo[3.2.1]octan-3-yl)-3-methyl-2-(methylamino)-6-oxohexanoyl]-cyclosporin] (cyclo(A[dA][NMeL][NMeL][NMeV][MeBmt][Abu][dNMeA][X45]V[NMeL])), the “CypB Kd” value at cyclophilin B (CypB) turned out to be 0.9. For the same compound, the “CypA Kd” value at cyclophilin A (CypA) is on record as 2.4. In addition, the 50% inhibitory concentration (IC50) in assay [1] (setting [4]) worked out at 0.075 µM; in assay [2], 1.9 µM; in assay [3] it was 6.7 µM. Also, on CypF, the CypF Kd was found to be 0.001 µM.
For the compound `C/C=C/C[C@@H](C)[C@@H](O)[C@H]1C(=O)N[C@@H](CC)C(=O)N(C)[C@H](C)C(=O)N(C)[C@@H]([C@H](C)CN2CCC3(CC2)OCCO3)C(=O)N[C@@H](C(C)C)C(=O)N(C)[C@@H](CC(C)C)C(=O)N[C@@H](C)C(=O)N[C@H](C)C(=O)N(C)[C@@H](CC(C)C)C(=O)N(C)[C@@H](CC(C)C)C(=O)N(C)[C@@H](C(C)C)C(=O)N1C` [Compound 2.5.28, 3-[D-Ala]-4-[(2S,3R)-3-methyl-2-(methylamino)-4-(1,4-dioxa-8-azaspiro[4.5]decan-8-yl)butanoyl]-cyclosporin] (cyclo(A[dA][NMeL][NMeL][NMeV][MeBmt][Abu][dNMeA][X35]V[NMeL])), the “CypB Kd” value on cyclophilin B (CypB) was 0.8. The “CypA Kd” value at cyclophilin A (CypA) is on record as 1.4. In addition, the half-inhibitory concentration (IC50) in assay [1] (setting [4]) was determined as 0.017 µM; in assay [2], 2.1 µM; in assay [3], 6.1 µM. For the same compound, at CypF, the CypF Kd was determined as 0.0008 µM.
For the compound `C/C=C/C[C@@H](C)[C@@H](O)[C@H]1C(=O)N[C@@H](CC)C(=O)N(C)[C@H](C)C(=O)N(C)[C@@H]([C@H](C)CCN2CCN(C3CCC3)CC2)C(=O)N[C@@H](C(C)C)C(=O)N(C)[C@@H](CC(C)C)C(=O)N[C@@H](C)C(=O)N[C@H](C)C(=O)N(C)[C@@H](CC(C)C)C(=O)N(C)[C@@H](CC(C)C)C(=O)N(C)[C@@H](C(C)C)C(=O)N1C` [Compound 2.18.10, 3-[D-Ala]-4-[(2S,3R)-5-(4-cyclobutylpiperazin-1-yl)-3-methyl-2-(methylamino)pentanoyl]-cyclosporin] (cyclo(A[dA][NMeL][NMeL][NMeV][MeBmt][Abu][dNMeA][X72]V[NMeL])), the “CypB Kd” value on cyclophilin B (CypB) was 1.1. Further, the “CypA Kd” value on cyclophilin A (CypA) came out at 1.5. The IC50 in assay [1] (setting [4]) was determined as 0.096 µM; in assay [2], 2.1 µM; in assay [3], 1.6 µM. Besides, the CypF Kd at CypF was found to be 0.0007 µM.
In the case of `C/C=C/C[C@@H](C)[C@@H](O)[C@H]1C(=O)N[C@@H](CC)C(=O)N(C)[C@H](C)C(=O)N(C)[C@@H]([C@@H](CN2CCOCC2)OC)C(=O)N[C@@H](C(C)C)C(=O)N(C)[C@@H](CC(C)C)C(=O)N[C@@H](C)C(=O)N[C@H](C)C(=O)N(C)[C@@H](CC(C)C)C(=O)N(C)[C@@H](CC(C)C)C(=O)N(C)[C@@H](C(C)C)C(=O)N1C` [Compound 2.21.1, 3-[D-Ala]-4-[(2S,3R)-3-methoxy-2-(methylamino)-4-morpholinobutanoyl]-cyclosporin] (cyclo(A[dA][NMeL][NMeL][NMeV][MeBmt][Abu][dNMeA][X76]V[NMeL])), the “CypB Kd” value at cyclophilin B (CypB) was 1.2. The “CypA Kd” value on cyclophilin A (CypA) stood at 2.8. Besides, the half-inhibitory concentration (IC50) came to 0.023 µM in assay [1], 0.9 µM in assay [2] and 15.7 µM in assay [3]. Further, at CypF, the CypF Kd was determined as 0.0012 µM.
Consider `C/C=C/C[C@@H](C)[C@@H](O)[C@H]1C(=O)N[C@@H](CC)C(=O)N(C)[C@H](C)C(=O)N(C)[C@@H]([C@H](C)CCN2CCN3C(=O)OC[C@@H]3C2)C(=O)N[C@@H](C(C)C)C(=O)N(C)[C@@H](CC(C)C)C(=O)N[C@@H](C)C(=O)N[C@H](C)C(=O)N(C)[C@@H](CC(C)C)C(=O)N(C)[C@@H](CC(C)C)C(=O)N(C)[C@@H](C(C)C)C(=O)N1C` [Compound 2.18.9, 3-[D-Ala]-4-[(2S,3R)-3-methyl-2-(methylamino)-5-((S)-3-oxotetrahydro-1H-oxazolo[3,4-a]pyrazin-7(3H)-yl)pentanoyl]-cyclosporin] (cyclo(A[dA][NMeL][NMeL][NMeV][MeBmt][Abu][dNMeA][X74]V[NMeL])), for which the “CypB Kd” value on cyclophilin B (CypB) came to 2.7. At cyclophilin A (CypA), the “CypA Kd” value came to 1.8. Moreover, the IC50 was 0.17 µM in assay [1] (setting [4]), 2.8 µM in assay [2] and 9.2 µM in assay [3]. Besides, at CypF, the CypF Kd amounted to 0.001 µM.
As for `C/C=C/C[C@@H](C)[C@@H](O)[C@H]1C(=O)N[C@@H](CC)C(=O)N(C)[C@H](C)C(=O)N(C)[C@@H]([C@H](C)CN2C[C@H](C)OC[C@@H]2C)C(=O)N[C@@H](C(C)C)C(=O)N(C)[C@@H](CC(C)C)C(=O)N[C@@H](C)C(=O)N[C@H](C)C(=O)N(C)[C@@H](CC(C)C)C(=O)N(C)[C@@H](CC(C)C)C(=O)N(C)[C@@H](C(C)C)C(=O)N1C` [Compound 2.5.6, 3-[D-Ala]-4-[(2S,3R)-4-((2S,5S)-2,5-dimethylmorpholino)-3-methyl-2-(methylamino)butanoyl]-cyclosporin] (cyclo(A[dA][NMeL][NMeL][NMeV][MeBmt][Abu][dNMeA][X31]V[NMeL])), on cyclophilin B (CypB), the “CypB Kd” value came out at 2.7. Besides, at cyclophilin A (CypA), the “CypA Kd” value is reported as 5.0. The IC50 in assay [1] (setting [4]) amounted to 0.035 µM; in assay [2], 2.6 µM; in assay [3], 3.4 µM. Further, on CypF, the CypF Kd came out at 0.0025 µM.
